Key:
NCI-H1299 = assay: MTT cell viability assay; type: cell-based; conditions: Homo sapiens, SETDB1 non-amplified cell line NCI-H1299
Experimental: (§1) • Figure 1. Determination of SETDB1 gene amplification and its association with RNA and protein overexpression in lung cancer cell lines. (A) Assessment of SETDB1 copy number by quantitative genomic PCR. Amplification frequency of SETDB1 (evaluated with SYBR Green) was calculated by the standard curve method using the 7900HT SDS program. To define an internal control gene chromosome 1p36.23 was chosen because it is the least aneuploid region among our cell lines (PEX19 gene). DNA from normal lung was used as the reference standard. Results are reported as n-fold copy number increase relative to the PEX19 gene. […] The internal control gene was ACTB (beta-actin). • Figure 2. Growth-promoting effects of SETDB1 in lung cancer. (A) Stable down-regulation of the SETDB1 gene by short hairpins using two different target sequences for DMS-273 (clones A30/A31 and clone B32-63) and NCI-H1437 (clones A56-B and B46-9). […] Tumor volume was monitored over time and the tumor was excised and weighed at 30 days. […] (A) Effect of SETDB1 on the invasion potential of A549 cells determined by the matrigel invasion assay. […] Invasive cells were counted using ImageJ 1.45s (Wayne Rasband, National Institutes of Health, USA) and the percentage of invasive cells was represented. Results are the mean of at least three experiments by duplicate and the significance was determined using ANOVA-test. *p<0.05. […]

NCI-H1437 = assay: MTT cell viability assay; type: cell-based; conditions: Homo sapiens, SETDB1 amplified cell line NCI-H1437
Experimental: as §1

A549 = assay: MTT cell viability assay; type: cell-based; conditions: Homo sapiens, SETDB1 non-amplified cell line A549
Text: (§2) The observation that the presence of the SETDB1 gene amplification with associated overexpression was critical for the tumorigenesis of these lung cancer cells prompted the inventors to examine whether drugs targeting this pathway might find a therapeutic "niche" for their use in the described subset of cases with extra copies of this gene. No highly specific inhibitor for SETDB1 has been described in the publicly available literature, but one agent-mithramycin- is a clinically approved anti-tumor antibiotic that binds to DNA by interacting with the minor groove and displacing transcriptional activators that bind to GC-rich binding sites. Thus, the inventors tested whether a putative growth-inhibitory effect of this drug in lung cancer cells was dependent on SETDB1 expression. First, western blot analyses for the SETDB1 protein in the SETDB1 amplified lung cancer cell lines DMS-273, NCI-H1437 and NCI-H1395 upon the use of the drug were developed. […] Experiments for each clone were performed in triplicate. Furthermore, we extended the cell viability experiments, using the MTT assay, to the other two SETDB1 amplified lung cancer cell lines (NCI-H1437 and NCI-H1395) and to three SETDB1 non-amplified lung cancer cell lines (DMS-114, A549 and NCI-H1299). […] Thus, the presence of SETDB1 gene amplification could "mark" lung cancer cells that are more sensitive to the inhibition of cell viability associated with the use of mithramycin.

DMS-114 = assay: MTT cell viability assay; type: cell-based; conditions: Homo sapiens, SETDB1 non-amplified cell line DMS-114
Text: as §2

NCI-H1395 = assay: MTT cell viability assay; type: cell-based; conditions: Homo sapiens, SETDB1 amplified cell line NCI-H1395
Text: as §2

DMS-273 = assay: MTT cell viability assay; type: cell-based, human; conditions: scramble shRNA DMS-273 cells compared with SETDB1-depleted clones; triplicate
Experimental: as §1

SETDB1 protein = assay: Western blot for SETDB1 protein after drug treatment of SETDB1 amplified lung cancer cell lines; type: cell-based, human; conditions: DMS-273, NCI-H1437 and NCI-H1395
Experimental: as §1

CL1-5 = conditions: Lin and Wang 2007; cited from earlier work
H647 = conditions: Lin and Wang 2007; cited from earlier work
CL1-5 cells = conditions: Lin and Wang 2007; cited from earlier work

CO[C@H](C(=O)[C@@H](O)[C@@H](C)O)[C@@H]1Cc2cc3cc(O[C@H]4C[C@@H](O[C@H]5C[C@@H](O)[C@H](O)[C@@H](C)O5)[C@H](O)[C@@H](C)O4)c(C)c(O)c3c(O)c2C(=O)[C@H]1O[C@H]1C[C@@H](O[C@H]2C[C@@H](O[C@H]3C[C@](C)(O)[C@H](O)[C@@H](C)O3)[C@H](O)[C@@H](C)O2)[C@H](O)[C@@H](C)O1 [mithramycin, (1S)-5-deoxy-1-C-((2S,3S)-7-{[2,6-dideoxy-3-O-(2,6-dideoxy-β-D-arabino-hexopyranosyl)-β-D-arabino-hexopyranosyl]oxy}-3-{[2,6-dideoxy-3-C-methyl-β-D-ribo-hexopyranosyl-(1→3)-2,6-dideoxy-β-D-arabino-hexopyranosyl-(1→3)-2,6-dideoxy-β-D-arabino-hexopyranosyl]oxy}-5,10-dihydroxy-6-methyl-4-oxo-1,2,3,4-tetrahydroanthracen-2-yl)-1-O-methyl-D-xylulose]
EC50 (NCI-H1299): 32 nM
EC50 (NCI-H1437): 13.6 nM
EC50 (A549): 122 nM
EC50 (DMS-114): 348 nM
EC50 (NCI-H1395): 14.7 nM
sensitivity to the growth-inhibitory effect (DMS-273): significantly more sensitive
SETDB1 expression (SETDB1 protein): inhibit SETDB1 expression
growth of human lung cancer cell lines (CL1-5): inhibiting the growth
growth of human lung cancer cell lines (H647): inhibiting the growth
invasion phenotypes (CL1-5 cells): inhibiting the invasion phenotypes

Reference: patent EP2813571A1, “Method for the treatment of lung cancer” (Institut d'Investigació Biomèdica de Bellvitge (IDIBELL), priority 2013, dated 2014)
